The nature of data set [1]: Drug distribution in heart of BALB/c nude mouse xenografted with human 22Rv1 cells at 10 nmol, iv measured 1 to 24 hrs after post dose by fluorescence imaging method. The settings on record: in vivo. It counts as ADME, organism-based.
Data set [2] in a line: Drug distribution in muscle of BALB/c nude mouse xenografted with human 22Rv1 cells at 10 nmol, iv measured 1 to 24 hrs after post dose by fluorescence imaging method. It counts as ADME, organism-based, Muscle tissue. The settings on record: in vivo.
Data set [3] is described as follows: Drug distribution in lung of BALB/c nude mouse xenografted with human 22Rv1 cells at 10 nmol, iv measured 1 to 24 hrs after post dose by fluorescence imaging method. It counts as ADME, organism-based. The settings on record: in vivo.
The nature of data set [4]: Drug distribution in tumor of BALB/c nude mouse xenografted with human 22Rv1 cells at 10 nmol, iv measured 1 to 24 hrs after post dose co-treated with 1 umol DCIBZL by fluorescence imaging method. It counts as ADME, organism-based, Neoplasm. The note with it: in vivo.
A short description of data set [5]: Drug distribution in liver of BALB/c nude mouse xenografted with human 22Rv1 cells at 10 nmol, iv measured 1 to 24 hrs after post dose co-treated with 1 umol DCIBZL by fluorescence imaging method. It counts as ADME, organism-based. The note with it: in vivo.
Data set [6] can be described thus: Drug distribution in liver of BALB/c nude mouse xenografted with human 22Rv1 cells at 10 nmol, iv measured 1 to 24 hrs after post dose by fluorescence imaging method. It counts as ADME, organism-based. The settings on record: in vivo.
Data set [7] concerns the target Glutamate carboxypeptidase 2 (Homo sapiens, UniProt Q04609). Kind of data set: Inhibition of PSMA in human LNCaP cell lysates incubated for 2 hrs in presence of N-acetylaspartylglutamate by Amplex red glutamic acid/glutamate oxidase assay.
Data set [8] in a line: Drug distribution in spleen of BALB/c nude mouse xenografted with human 22Rv1 cells at 10 nmol, iv measured 1 to 24 hrs after post dose by fluorescence imaging method. It counts as ADME, organism-based. The note with it: in vivo.
A short description of data set [9]: Drug distribution in tumor of BALB/c nude mouse xenografted with human 22Rv1 cells at 10 nmol, iv measured 1 to 24 hrs after post dose by fluorescence imaging method. The settings on record: in vivo. It counts as ADME, organism-based, Neoplasm.

Glutamate carboxypeptidase 2, sequence (Q04609 whole entry): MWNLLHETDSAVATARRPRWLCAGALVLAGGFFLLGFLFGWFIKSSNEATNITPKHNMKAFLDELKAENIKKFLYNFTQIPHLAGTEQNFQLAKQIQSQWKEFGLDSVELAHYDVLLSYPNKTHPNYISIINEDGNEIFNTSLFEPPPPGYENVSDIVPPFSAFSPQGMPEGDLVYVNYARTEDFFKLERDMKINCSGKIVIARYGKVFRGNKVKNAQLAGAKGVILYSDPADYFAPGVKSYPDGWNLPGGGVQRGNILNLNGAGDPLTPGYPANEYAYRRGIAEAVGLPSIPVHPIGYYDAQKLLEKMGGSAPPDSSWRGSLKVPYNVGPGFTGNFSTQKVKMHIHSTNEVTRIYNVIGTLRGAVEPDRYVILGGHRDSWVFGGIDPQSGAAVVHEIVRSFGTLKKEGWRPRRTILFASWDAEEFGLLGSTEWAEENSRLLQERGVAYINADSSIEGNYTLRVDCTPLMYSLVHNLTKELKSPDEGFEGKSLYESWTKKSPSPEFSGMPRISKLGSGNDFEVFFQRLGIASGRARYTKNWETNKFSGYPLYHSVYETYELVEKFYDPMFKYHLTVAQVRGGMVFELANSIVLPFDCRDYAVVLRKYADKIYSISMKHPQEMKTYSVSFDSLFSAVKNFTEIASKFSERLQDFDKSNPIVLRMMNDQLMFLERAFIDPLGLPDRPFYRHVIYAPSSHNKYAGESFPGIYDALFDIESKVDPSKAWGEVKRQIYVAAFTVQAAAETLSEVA

With `CCN1/C(=C/C=C/C=C/C2=[N+](CCCCCC(=O)NCCCC(=O)N[C@@H](CCC(=O)NCCCC[C@H](NC(=O)N[C@@H](CCC(=O)O)C(=O)O)C(=O)O)C(=O)NCCCC[C@H](NC(=O)N[C@@H](CCC(=O)O)C(=O)O)C(=O)O)c3ccc4c(S(=O)(=O)[O-])cc(S(=O)(=O)O)cc4c3C2(C)C)C(C)(C)c2c1ccc1c(S(=O)(=O)O)cc(S(=O)(=O)O)cc21`, the Drug uptake entry in data set [1], in data set [2], in data set [3], in data set [4], in data set [5] and in data set [6] was “Not Active” each time. Also, the Drug uptake result in data set [8] is “Not Active”; in [9], “Active”. In data set [7], the Ki came out at 0.14 nM.
Regarding `CCN1/C(=C/C=C/C=C/C2=[N+](CCCCCC(=O)NCCCN(CC(=O)Nc3ccc(C(=O)NCCCC[C@H](NC(=O)N[C@@H](CCC(=O)O)C(=O)O)C(=O)O)cc3)CC(=O)Nc3ccc(C(=O)NCCCC[C@H](NC(=O)N[C@@H](CCC(=O)O)C(=O)O)C(=O)O)cc3)c3ccc4c(S(=O)(=O)[O-])cc(S(=O)(=O)O)cc4c3C2(C)C)C(C)(C)c2c1ccc1c(S(=O)(=O)O)cc(S(=O)(=O)O)cc21`, the Drug uptake result is recorded as “Not Active” in data set [1]; “Not Active” in [2]; “Not Active” in data set [3]; “Active” in data set [6]; “Not Active” in data set [8]; “Active” in data set [9]. Moreover, in data set [7], the Ki came out at 0.38 nM.
As for `CCN1/C(=C/C=C/C=C/C2=[N+](CCCCCC(=O)NCCCC(=O)NCCCC[C@H](NC(=O)N[C@@H](CCC(=O)O)C(=O)O)C(=O)O)c3ccc4c(S(=O)(=O)[O-])cc(S(=O)(=O)O)cc4c3C2(C)C)C(C)(C)c2c1ccc1c(S(=O)(=O)O)cc(S(=O)(=O)O)cc21`, the Drug uptake result was “Not Active” in data set [1]; “Not Active” in data set [2]; “Not Active” in [3]; “Not Active” in data set [4]; “Not Active” in data set [5]; “Active” in [6]. For the same compound, the figures for the Drug uptake result in data set [8] and in data set [9] were “Not Active” and “Active”, respectively. Also, in data set [7], the Ki was found to be 0.58 nM.

These data come from ChEMBL document CHEMBL4184252, “Synthesis of novel multivalent fluorescent inhibitors with high affinity to prostate cancer and their biological evaluation” (Bioorg Med Chem Lett, 2018).
